Laboratory results published in paper PMC9270327 (Communications Biology, 2022).
Where a name gives a salt, the structure may show the parent alone. Read-outs that look alike come from different tables or passages of the source.

Tested on: SARS-CoV-2 Wuhan-Hu-1 D614G, Caco-2 cells
Assay type: cell-based
Conditions: for IC50: Caco-2 cells; for SARS-CoV-2 infection, Mean (0 nM = 100): Fig. 6b, D614G isolate
[1] = in-cell ELISA 2 days post infection

Compound: CN(C)C(=O)COC(=O)Cc1ccc(OC(=O)c2ccc(NC(=N)N)cc2)cc1 [CM, camostat mesylate, reference compound]
- IC50 (2 days post infection): 26.7 µM
- IC50 [1]: 26.7 µM
- SARS-CoV-2 infection, Mean (0 nM = 100) (compound 32 nM): 93.4834
- SARS-CoV-2 infection, Mean (0 nM = 100) (compound 160 nM): 88.1889
- SARS-CoV-2 infection, Mean (0 nM = 100) (compound 800 nM): 88.3001
- SARS-CoV-2 infection, Mean (0 nM = 100) (compound 4000 nM): 93.3101
- SARS-CoV-2 infection, Mean (0 nM = 100) (compound 20000 nM): 68.3858
- SARS-CoV-2 infection, Mean (0 nM = 100) (compound 100000 nM): 1.574

Compound: ace-Arg-Pro-Arg-kbt [Compound 2]
- IC50 (2 days post infection): 17.1 µM
- IC50 [1]: 17.1 µM
- SARS-CoV-2 infection, Mean (0 nM = 100) (compound 32 nM): 95.739
- SARS-CoV-2 infection, Mean (0 nM = 100) (compound 160 nM): 98.0747
- SARS-CoV-2 infection, Mean (0 nM = 100) (compound 800 nM): 97.5395
- SARS-CoV-2 infection, Mean (0 nM = 100) (compound 4000 nM): 101.461
- SARS-CoV-2 infection, Mean (0 nM = 100) (compound 20000 nM): 23.4531
- SARS-CoV-2 infection, Mean (0 nM = 100) (compound 100000 nM): 0.121
